Measurements published in patent US10464907B2, “Compound having HSP90 inhibitory activity or pharmaceutically acceptable salt thereof, and medical use thereof” (priority 2016, dated 2019).
Read-outs that look alike come from different tables or passages of the source.

Experiments:
H1975 cells = test: MTS cell viability in H1975 cells resistant to Gefitinib; assay type: cell-based; details: read-out: H1975 (EC50; μM)
Method: To confirm the cell viability according to the concentration of the compound synthesized in H1975 cells (ATCC) resistant to Gefitinib, MTS [3-(4,5-dimethylthiazol-2-yl)-5-[…]carboxymethoxyphenyl)-2-(4-sulfophenyl)-2H-tetrazolium, inner salt] analysis was performed. When the cells were cultured so as to occupy 80% of the bottom of the culture dish, the cells were detached and diluted with RPMI 1640 medium to a concentration of 1.5×10^3 cells/well. Each 100 μL of the suspension was added to each well of a 96-well plate and cultured for 14 hours. Then, the medium was changed to the culture solution treated with compound of each concentration each concentration (1a-g: 0, 1, 5, 10, 30, 50 or 100 μM, 14a-I, 16a, b, 21a-f: 0, 0.01, 0.1, 1, 5, 10, 30, 50, 70 or 100 μM), and cultured for 3 days. Each 20 μL of the MTS solution was dispensed into each well and reacted for 1 hour at 37° C. in an incubator supplied with 5% CO2.

HSP90α = HSP90α (Homo sapiens (Human), UniProt P07900); test: Fluorescence polarization assay, binding ability to HSP90, benzamide compounds; details: GA-FITC 100 nM; read-out: HSP90 FP) (IC50; nM)
Method: 1 M dithiothreitol (DTT), 10 mg/m: BGG (bovine gamma globulin) were added to hexafluorobenzene (HFB) buffer (20 mM HEPES pH 7.3, 50 mM KCl, 5 mM MgCl2, 20 mM Na2MoO4, 0.01% NP4O, 3rd distilled water) and mixed. Then, 100 nM […] (GA)-FITC (Fluorescein isothiocyanate) was added and reacted at room temperature for 10 minutes. Each 100 μL of the mixture was dispensed into the control wells of a 96-well plate, 2 μL of HSP90α was added to the remaining mixture, and each 100 μL of the other wells was dispensed. […] The binding ability of the compound to HSP90 was expressed as mP (millipolarization unit=1000 mP unit).

LogP = assay type: physicochemical; details: called measured values of LogP
Method: All experimental data were analyzed using Prism software (version 5.0, Graphpad Software, San Diego, Calif.). In addition, tPSA (Topological Polar Surface Area) calculated using Chemdraw software and the measured values of LogP are shown in Tables 1 and 2 below.

H1975 = test: MTS cell proliferation / survival assay; assay type: cell-based; details: Homo sapiens; for inhibition at 10 µM: NCI-H1975, read-out: Inhibition rate at 10 μM (%); for inhibition at 30 µM: NCI-H1975, read-out: Inhibition rate at 30 μM (%)
Method: Sk-Br3 (Korean cell line bank), a breast cancer cell, and H1975 cell (ATCC), a nonsmall cell lung cancer, were cultured in RPMI 1640 containing 25 mM HEPES (4-(2-hydroxyethyl)-1-piperazineethanesulfonic acid) and RPMI 1640 containing L-glutamine (containing streptomycin ([…]), penicillin (100 units/mL) and 10% fetal bovine serum (FBS)).
The cells were cultured under a humidified atmosphere of 37° C. and 5% CO2.
Next, non-metastatic lung cancer cells were treated with Compound 17 and the cell proliferation rate or cell survival rate was measured by MTS [3-(4,5-dimethylthiazol-2-yl)-5-(3-carboxymethoxyphenyl)-2-2H-tetrazolium, inner salt] analysis.
Cells were dispensed in 96-well plates at 3000 cell/well (Sk-Br3) and 2000 cell/well (H1975), and 100 μL of the medium was added per well and then was incubated overnight.
Cell proliferation was evaluated using the Promega Cell Titer 96 Aqueous One Solution cell proliferation assay.
After compound and cell culture, 20 μL of assay substrate solution was added to each well and incubated at 37° C. for an additional 1 hour.
Cell proliferation was confirmed by measuring the absorbance at 490 nm using a microplate reader (Tecan Infinite F200 Proplate reader).

**Q.** For `CC(C)c1cc(C(=O)N(C)Cc2ccccc2)c(O)cc1O` [Compound 21g, N-benzyl-2,4-dihydroxy-5-isopropyl-N-methylbenzamide], which EC50 (H1975 cells; Homo sapiens, NCI-H1975, 72 h) is on record?
**A.** 4.1 µM

**Q.** With `Cc1ccc(CN(C)C(=O)c2cc(Cl)c(O)cc2O)cc1` [Compound 16b, 5-chloro-2,4-dihydroxy-N-methyl-N-(4-methylbenzyl)benzamide] as the compound, how does the EC50 (H1975 cells; Homo sapiens, NCI-H1975, 72 h) read?
**A.** 34.3 µM

**Q.** And the IC50 (HSP90α)?
**A.** 558 nM

**Q.** With `Cc1cccc(CN(C)C(=O)c2cc(Cl)c(O)cc2O)c1` [Compound 14i, 5-chloro-2,4-dihydroxy-N-methyl-N-(3-methylbenzyl)benzamide] as the compound, how does the EC50 (H1975 cells; Homo sapiens, NCI-H1975, 72 h) read?
**A.** 47.5 µM

**Q.** What does the source list for `COc1cc(CN(C)C(=O)c2cc(Cl)c(O)cc2O)cc(OC)c1OC` [Compound 14f, 5-chloro-2,4-dihydroxy-N-methyl-N-(3,4,5-trimethoxybenzyl) benzamide]?
**A.** EC50 (H1975 cells; H1975, 3 days): 73.1 µM; IC50 (HSP90α): 1460 nM

**Q.** What does the source list for `CCCNC(=O)c1ccc(CN(C)C(=O)c2cc(Cl)c(O)cc2O)cc1` [Compound 21c, 5-chloro-2,4-dihydroxy-N-methyl-N-(4-(propylcarbamoyl)benzyl)benzamide]?
**A.** EC50 (H1975 cells; Homo sapiens, NCI-H1975, 72 h): 20.8 µM; IC50 (HSP90α): 454 nM

**Q.** For `COc1ccc(CN(C)C(=O)c2cc(Cl)c(O)cc2O)cc1` [Compound 14c, 5-chloro-2,4-dihydroxy-N-(4-methoxybenzyl)-N-methylbenzamide], which EC50 (H1975 cells; Homo sapiens, NCI-H1975, 72 h) is on record?
**A.** 16.7 µM

**Q.** And the IC50 (HSP90α)?
**A.** 135 nM

**Q.** Which results are given for `COc1ccc(CN(C)C(=O)c2cc(Cl)c(O)cc2O)cc1OC` [Compound 14d, 5-chloro-N-(3,4-dimethoxybenzyl)-2,4-dihydroxy-N-methylbenzamide]?
**A.** EC50 (H1975 cells; Homo sapiens, NCI-H1975, 72 h): 33.4 µM; IC50 (HSP90α): 362 nM

**Q.** For `CN(Cc1ccc2c(c1)OCO2)C(=O)c1cc(Cl)c(O)cc1O` [Compound 14e, N-(benzo[d][1,3]dioxol-5-ylmethyl)-5-chloro-2,4-dihydroxy-N-methylbenzamide], which EC50 (H1975 cells; Homo sapiens, NCI-H1975, 72 h) is on record?
**A.** 103 µM

**Q.** And the IC50 (HSP90α)?
**A.** 585 nM

**Q.** With `CNC(=O)c1ccc(CN(C)C(=O)c2cc(Cl)c(O)cc2O)cc1` [Compound 21a, 5-chloro-2,4-dihydroxy-N-methyl-N-(4-(methylcarbamoyl)benzyl) benzamide] as the compound, how does the EC50 (H1975 cells; H1975, 3 days) read?
**A.** 34.8 µM

**Q.** And the IC50 (HSP90α)?
**A.** 496 nM

**Q.** Which logP (LogP) does the source give for `CN1CCN(C(=O)c2cc(Cl)c(O)cc2O)C(c2ccccc2)C1` (centres unmarked) [Compound 11j, (5-chloro-2,4-dihydroxyphenyl)(4-methyl-2-phenylpiperazin-1-yl)methanone] here?
**A.** 3.22

**Q.** For `CCNC(=O)c1ccc(CN(C)C(=O)c2cc(C(C)C)c(O)cc2O)cc1` [Compound 21e, N-(4-(ethylcarbamoyl)benzyl)-2,4-dihydroxy-5-isopropyl-N-methylbenzamide], which EC50 (H1975 cells; Homo sapiens, NCI-H1975, 72 h) is on record?
**A.** 0.46 µM

**Q.** And the IC50 (HSP90α)?
**A.** 6.5 nM

**Q.** Which results are given for `O=C1CN(C(=O)c2cc(Cl)c(O)cc2O)CCN1` [Compound 11g, 4-(5-chloro-2,4-dihydroxybenzoyl)piperazin-2-one]?
**A.** logP (LogP): 0.45; inhibition at 10 µM (H1975): 0%; inhibition at 30 µM (H1975): 0%

**Q.** What does the source list for `O=C(c1cc(Cl)c(O)cc1O)N1CCOCC1` [Compound 11c, (5-chloro-2,4-dihydroxyphenyl) (morpholino)methanone]?
**A.** logP (LogP): 0.66; inhibition at 10 µM (H1975): 24.3%; inhibition at 30 µM (H1975): 44%

**Q.** Which EC50 (H1975 cells; H1975, 3 days) does the source give for `CNC(=O)c1ccc(CN(C)C(=O)c2cc(C(C)C)c(O)cc2O)cc1` [Compound 21d, 2,4-dihydroxy-5-isopropyl-N-methyl-N-(4-(methylcarbamoyl)benzyl) benzamide] here?
**A.** 0.83 µM

**Q.** What about the IC50 (HSP90α) of the same compound?
**A.** 11.4 nM

**Q.** With `O=C1CCN(C(=O)c2cc(Cl)c(O)cc2O)CC1` [Compound 11i, 1-(5-chloro-2,4-dihydroxybenzoyl)piperidin-4-one] as the compound, how does the logP (LogP) read?
**A.** 0.6

**Q.** What does the source list for `COc1cc(CN(C)C(=O)c2cc(Cl)c(O)cc2O)c(Cl)c(OC)c1OC` [Compound 14g, 5-chloro-N-(2-chloro-3,4,5-trimethoxybenzyl)-2,4-dihydroxy-N-methylbenzamide]?
**A.** EC50 (H1975 cells; Homo sapiens, NCI-H1975, 72 h): 33.8 µM; IC50 (HSP90α): 429 nM

**Q.** Which logP (LogP) does the source give for `O=C(c1cc(Cl)c(O)cc1O)N1CCNCC1` [Compound 11d, (5-chloro-2,4-dihydroxyphenyl) (piperazin-1-yl)methanone] here?
**A.** 0.65

**Q.** What about the inhibition at 10 µM (H1975) of the same compound?
**A.** 0%

**Q.** And the inhibition at 30 µM (H1975)?
**A.** 0%

**Q.** For `O=C(NCc1ccccc1)c1cc(Cl)c(O)cc1O` [Compound 14a, N-Benzyl-5-chloro-2,4-dihydroxybenzamide], which EC50 (H1975 cells; Homo sapiens, NCI-H1975, 72 h) is on record?
**A.** 86.2 µM

**Q.** Which results are given for `CN1CCN(C(=O)c2cc(Cl)c(O)cc2O)CC1` [Compound 11e, (5-chloro-2,4-dihydroxyphenyl)(4-methylpiperazin-1-yl)methanone]?
**A.** logP (LogP): 1.23; inhibition at 10 µM (H1975): 26.3%; inhibition at 30 µM (H1975): 48.7%

**Q.** For `Cc1ccccc1CN(C)C(=O)c1cc(Cl)c(O)cc1O` [Compound 16a, 5-chloro-2,4-dihydroxy-N-methyl-N-(2-methylbenzyl)benzamide], which EC50 (H1975 cells; Homo sapiens, NCI-H1975, 72 h) is on record?
**A.** 49.3 µM

**Q.** What does the source list for `CC(=O)N1CCN(C(=O)c2cc(Cl)c(O)cc2O)CC1` [Compound 11f, 1-(4-(5-chloro-2,4-dihydroxybenzoyl)piperazin-1-yl)ethanone]?
**A.** logP (LogP): 0.25; inhibition at 10 µM (H1975): 0%; inhibition at 30 µM (H1975): 10.5%

**Q.** What does the source list for `O=C(c1cc(Cl)c(O)cc1O)N1CCCC1` [Compound 11a, (5-chloro-2,4-dihydroxyphenyl) (pyrrolidin-1-yl)methanone]?
**A.** logP (LogP): 1.13; inhibition at 10 µM (H1975): 8.1%; inhibition at 30 µM (H1975): 22.1%

**Q.** Which results are given for `CN(Cc1ccccc1)C(=O)c1cc(Cl)c(O)cc1O` [Compound 14b, N-Benzyl-5-chloro-2,4-dihydroxy-N-methylbenzamide]?
**A.** EC50 (H1975 cells; Homo sapiens, NCI-H1975, 72 h): 35.5 µM; IC50 (HSP90α): 413 nM

**Q.** With `CCNC(=O)c1ccc(CN(C)C(=O)c2cc(Cl)c(O)cc2O)cc1` [Compound 21b, 5-chloro-N-(4-(ethylcarbamoyl)benzyl)-2,4-dihydroxy-N-methylbenzamide] as the compound, how does the EC50 (H1975 cells; Homo sapiens, NCI-H1975, 72 h) read?
**A.** 21.7 µM

**Q.** What about the IC50 (HSP90α) of the same compound?
**A.** 612 nM

**Q.** Which results are given for `COc1cc(CN(C)C(=O)c2cc(Cl)c(O)cc2O)c(Br)c(OC)c1OC` [Compound 14h, N-(2-bromo-3,4,5-trimethoxybenzyl)-5-chloro-2,4-dihydroxy-N-methylbenzamide]?
**A.** EC50 (H1975 cells; Homo sapiens, NCI-H1975, 72 h): 34.3 µM; IC50 (HSP90α): 528 nM

**Q.** Which logP (LogP) does the source give for `O=C(c1cc(Cl)c(O)cc1O)N1CCCCC1` [Compound 11b, (5-chloro-2,4-dihydroxyphenyl) (piperidin-1-yl)methanone] here?
**A.** 1.69

**Q.** What about the inhibition at 10 µM (H1975) of the same compound?
**A.** 7.6%

**Q.** What about the inhibition at 30 µM (H1975) of the same compound?
**A.** 26.3%

**Q.** What does the source list for `O=C1CCN(C(=O)c2cc(Cl)c(O)cc2O)C1` [Compound 11h, 1-(5-chloro-2,4-dihydroxybenzoyl) pyrrolidin-3-one]?
**A.** logP (LogP): 0.84; inhibition at 10 µM (H1975): 0%; inhibition at 30 µM (H1975): 0%
